In patent US11944609B1, “Antifungal ionic liquid and Amphotericin B combination” (KING ABDULAZIZ UNIVERISTY, priority 2023, dated 2024):

What was measured:
C. auris [1] = assay: Checkerboard microdilution assay of ionic liquids with amphotericin B, with varied ratio isobolograms; type: cell-based, Candida auris; settings: for Decrease in the MIC when used together: IPC8 + amphotericin B combination versus alone; for Average MIC values of individual compounds: alone; for MIC of ionic liquids in combination with AmB: 1:1 combination with amphotericin B; for FICb: fractional inhibitory concentration of amphotericin B; for FICa: fractional inhibitory concentration of the ionic liquid; for Type of interaction / ΣFIC: ionic liquid + amphotericin B
Experimental: The type of interaction between ionic liquids and amphotericin B against C. auris was evaluated by the checkerboard microdilution method. The concentrations of ionic liquids used ranged from 5000-0.61 μg/mL, and amphotericin B was 64-0.06 μg/mL. Subsequently, equal volumes (50 μL) of ionic liquids and amphotericin B were dispensed into pre-determined wells, which were further supplemented with C. auris cells (0.5×103-2.5×10^3 cells/mL; 100 μL) followed by incubation at 35±2° C. for 24 h. Also, each experiment included DMSO (1%) was added as negative control along with growth and sterility controls. […] The interaction between the test compounds and amphotericin B was deduced according to the calculated coefficient of the sum of fractional inhibitory concentrations (ΣFIC).
[formula] MICa=MIC of the ionic liquids; MICb=MIC of amphotericin B. The FICI values were interpreted as ΣFIC≤0.5, synergy; ΣFIC>0.5-≤1, additivity; ΣFIC>1-<2, no interaction; ΣFIC≥2, antagonism.

C. auris [2] = assay: Antifungal susceptibility by broth microdilution (MIC) and SDA plating (MFC); type: cell-based, Candida auris; settings: for Average MIC value / Average MFC value: compound alone, C. auris (2921); for Average MIC value: concentration giving 100% inhibition; for Average MFC value: no visible colonies on SDA after 24 h
Experimental: In this work, the antifungal activity of the ionic liquids (IPC4-IPC12) against C. auris was investigated in terms of minimum inhibitory concentration (MIC) and minimum fungicidal concentration (MFC). A stock solution of 20 mg/mL was prepared in 1% Dimethyl sulfoxide (DMSO; Sigma-Aldrich, USA). Fourteen different concentrations of test ILs were prepared by performing serial dilution in a flat bottom 96-well microtiter plate, followed by the addition of C. auris cells (0.5×103-2.5×10^3 cells/mL; 100 μL) which gave us the final test concentrations of ILs (5000-0.61 μg/mL). Amphotericin B was used as a positive control, 1% DMSO as a negative control, and drug-free control was used in each set of experiments. The optical density was determined at a wavelength of 600 nm using SpectraMax iD3 multi-mode microplate reader, and the concentration resulting in 100% inhibition was picked up as the MIC value. Post-MIC evaluation, MFC was estimated by administrating 10 μL of samples from the wells displaying MIC and beyond on a Sabouraud Dextrose Agar (SDA) plate. The plates were incubated at 35±2° C. for 24 h, and the concentration resulting in no visible colonies was documented as MFC value for respective ionic liquids.

[3] = Density measurement (Density Meter DMA 501); type: physicochemical; settings: 298K, atmospheric pressure
Experimental: The uncertainties in the density measurements, considering the sample handling and purity, are determined to be with an accuracy of 0.0001 g/cm3.

[4] = Viscosity measurement (RHEOSENSE MicroVisc viscometer); type: physicochemical; settings: 298K, atmospheric pressure
C. auris [5] = assay: In vitro time-kill assay; type: cell-based, Candida auris; settings: for Average log10 CFU/mL: healthy control 7.78
Experimental: The assay for determining the time-kill kinetics values of IPC8 against C. auris was carried out at various concentrations (½, 1, 2, and 4 times the MIC) against C. auris. The C. auris cell suspension with a starting inoculum of around 1×105 to 5×10^5 CFU/mL was incubated with/without IPC8 at 35° C.±2° C. and 150 rpm. Aliquots (100 μL) were taken out at predetermined time points (0, 2, 4, 6, 8, 12, and 24 h), and for determining CFU counts, the aliquots were serially diluted in sterile water and plate (20 μL) on SDA growth medium. The plates were incubated at 35° C.±2° C. for 24 to 48 h, and the number of colonies was counted using a colony counter. The experiment was performed in duplicate, and the result is articulated in log 10 viable CFU/mL.

[6] = tested on: horse red blood cells (H-RBC); assay: Haemolytic activity (cytotoxicity on red blood cells); type: cell-based
Experimental: The cytotoxicity of IPC8 on horse red blood cells (H-RBC) was checked by conducting a cytotoxicity assay. Briefly, the RBC was separated from the horse blood and was thoroughly washed with NaCl (150 mM) solution. Thereafter, RBC suspension (2%) was prepared in sterile PBS, followed by the addition (180 μL) to a microcentrifuge tube containing […] ([…]), the microcentrifuge tubes were kept aside for 45 min at 37° C. followed by centrifugation at 1300×g for 5 min. The supernatant (100 μL) was collected in a separate tube and mixed with 900 μL of sterile PBS. Aliquots (200 μL) were taken from each dilution and transferred to a 96-well flat bottom microtiter plate, and optical density was measured at 540 nm (SpectraMax iD3 multi-mode microplate reader, Molecular Devices). The negative control contained RBC suspension in PBS, and the positive control had RBC treated with 0.1% Triton X-100. To calculate the percentage of hemolysis below formula was used.

[7] = nine ratios of IPC8 and amphotericin B (10:90 to 90:10), isobolograms

Row | Compound | Average MIC values of individual compounds (C. auris [1]) [µg/mL] | Average MIC value (C. auris [2]) [µg/mL] | Average MFC value (C. auris [2]) [µg/mL] | MIC of ionic liquids in combination with AmB (C. auris [1]) [µg/mL] | FICb (C. auris [1]) | FICa (C. auris [1]) | Type of interaction (C. auris [1]) | ΣFIC (C. auris [1]) | Density [3] [g/mL] | Viscosity [4] [mPa] | also measured
1 | C[C@@H]1[C@H](O)[C@@H](C)/C=C/C=C/C=C/C=C/C=C/C=C/C=C/[C@H](O[C@@H]2O[C@H](C)[C@@H](O)[C@H](N)[C@@H]2O)C[C@@H]2O[C@](O)(C[C@@H](O)C[C@@H](O)[C@H](O)CC[C@@H](O)C[C@@H](O)CC(=O)O[C@H]1C)C[C@H](O)[C@H]2C(=O)O [Amphotericin B] | 2.0 | 2.0 | 4.0 | – | – | – | – | – | – | – | Decrease in the MIC when used together (C. auris [1]): four-fold; Average MIC value (C. auris [2]; listed as amphotericin B): 2 µg/mL; Average MFC value (C. auris [2]; listed as amphotericin B): 4 µg/mL
2 | CCCC[n+]1ccn2ccccc21.[Br-] [IPC4, 1-Butylimidazo[1,2-a] pyridinium bromide] | 78.12 | 78.12 | 312.5 | 39.06 | 1.0 | 0.5 | No INT (ΣFIC>1-<2, no interaction) | 1.5 | 1.0310 | 4.14 | –
3 | CCCCCC[n+]1ccn2ccccc21.[Br-] [IPC6, 1-Hexylimidazo[1,2-a] pyridinium bromide] | 39.06 | 39.06 | 78.12 | 9.76 | 0.25 | 0.24 | SYN (ΣFIC≤0.5, synergy) | 0.49 | 1.0102 | 14.7 | –
4 | CCCCCCCC[n+]1ccn2ccccc21.[Br-] [IPC8, 1-Octylimidazo[1,2-a] pyridinium bromide] | 4.88 | 4.88 | 9.76 | 1.22 | 0.125 | 0.25 | SYN (ΣFIC≤0.5, synergy) | 0.38 | 1.0094 | 25.21 | Time to candidacidal endpoint (C. auris [5]; 2 times MIC): 12 h; Time to 50% reduction in the log10 CFU/mL from the inoculum (C. auris [5]; MIC): 12 h; Average log10 CFU/mL (C. auris [5]; after 24 hr exposure to MIC): 4.67 log10 CFU/mL; Average log10 CFU/mL (C. auris [5]; after 24 hr exposure to ½ MIC): 5.8 log10 CFU/mL; Time to 50% reduction in the number of CFU (C. auris [5]; four times MIC): 2 h; Time to candidacidal endpoint (C. auris [5]; four times MIC): 24 h; Nature of activity in time-kill curve (C. auris [5]; kill of ≥log 3, concentration- and time-dependent): fungicidal; Time to 50% reduction in the number of CFU (C. auris [5]; two times MIC): 4 h; Decrease in the MIC when used together (C. auris [1]): four-fold; Number of ratios (out of nine) with additive interaction (C. auris [1]; [7]): two; Number of ratios (out of nine) with strong synergistic effect (C. auris [1]; [7]): seven; Haemolysis ([6]; 156.25 μg/mL): 16.14%; Fold lower MIC and MFC values compared to other tested ionic liquids (C. auris [2]; IPC8 versus other ionic liquids): 3 to 8 fold
5 | CCCCCCCCCC[n+]1ccn2ccccc21.[Br-] [IPC10, 1-Decylimidazo[1,2-a] pyridinium bromide] | 78.12 | 78.12 | 312.5 | 19.53 | 0.5 | 0.25 | ADD (ΣFIC>0.5-≤1, additivity) | 0.75 | 1.0081 | 27.20 | –
6 | CCCCCCCCCCCC[n+]1ccn2ccccc21.[Br-] [IPC12, 1-Dodecylimidazo[1,2-a] pyridinium bromide] | 312.5 | 312.5 | 625 | 156.25 | 0.5 | 0.25 | ADD (ΣFIC>0.5-≤1, additivity) | 0.75 | 1.0049 | 28.60 | –
7 | triton X-100 [reference compound] | – | – | – | – | – | – | – | – | – | – | Haemolysis (observation) [6]: clear haemolysis
